Tests used:
[1] = system: cryopreserved human hepatocytes; assay: Incubation of [14C]DCDQ with cryopreserved human hepatocytes; type: in vitro ADME; details: 4 hours
Procedure: Vials containing cryopreserved human hepatocytes were thawed in a 37° C. water bath with gentle shaking until the ice was almost melted. The vials were removed from the water bath and gentle shaking continued at room temperature for 30-60 seconds until completely thawed. The hepatocyte suspensions from each vial were immediately transferred to pre-cooled 50 mL beakers on ice. To each beaker, 12 mL of ice-cold hepatocyte suspension media was added dropwise over one minute, with occasional, gentle shaking by hand to prevent the cells from settling. The cell suspensions were transferred to a 15 mL tube and centrifuged at 100 g force for 3 min at 4° C. (Model T21 super centrifuge, Sorvall). The supernatant was discarded and the pellets were re-suspended in 4 mL of ice-cold hepatocyte culture media. The cell suspensions contained approximately 3.1×10^6 viable hepatocytes/mL. The average viability was 76.0% as determined using Trypan Blue exclusion and a hemacytometer.
The cell suspensions were distributed into 12-well plates at 1.0 mL per well. Incubations were performed using pooled hepatocytes from two donors. [^14C]DCDQ in water was added to the hepatocyte suspension at a final concentration of 10 or 50 μM. Incubations were carried out at 37° C. for 4 hours in an incubator supplied with 5% CO2. At the end of the incubation, the reaction was stopped by the addition of 200 μL cold methanol to each well. The content of each well was transferred to a 15 mL centrifuge tube and sonicated for 30 seconds. After vortex mixing with 6 mL methanol and then centrifugation, the supernatant was transferred to a clean tube and evaporated to about 0.5 mL in a TurboVap evaporator. The residue was analyzed by HPLC and LC/MS.
A Waters model 2690 HPLC system (Waters Corp., Milford, Mass.) with a built-in autosampler was used for analysis. […] A variable wavelength UV detector set to monitor 250 nm and Flo-One β Model A525 radioactivity flow detector (Perkin Elmer) with a 250 μL LQTR flow cell were used for data acquisition. […]

[2] = Dog fecal excretion and metabolite profiles after oral capsule of [14C]DCDQ; type: in vivo, beagle dogs
Procedure: Blood samples were collected from the jugular vein at 2, 4, 8, 24 and 48 hour after dose administration into tubes containing potassium EDTA as the anticoagulant and then placed on ice. Aliquots of 50 μL were removed for combustion and determination of radioactivity content. Plasma was immediately obtained from the remaining blood by centrifugation at 4° C. Urine samples were collected into tubes on dry ice at intervals of 0-8, 8-24 and 24-48 hour post-dose. Fecal samples were collected at intervals of 0-8, 8-24 and 24-48 hour post-dose at room temperature, and were homogenized. The biological specimens were stored at approximately −70° C. until analysis.
Feces were weighed and homogenized in water at a volume-to-weight ratio of about 5:1. Aliquots of blood (200 μL) and fecal homogenates (0.25-0.53 gram) were placed on Combusto-cones with Combusto-pads and combusted. A model 307 Tri-Carb sample oxidizer, equipped with an Oximate-80 robotic automatic sampler (Perkin Elmer), was used for combustion of blood and fecal samples. The liberated ^14CO2 was trapped with Carbo-Sorb E carbon dioxide absorber, mixed with PermaFluor® E+ liquid scintillation cocktail, and counted on a Tri-Carb Model 3100 TR/LL liquid scintillation counter (Perkin Elmer). The efficiency of combustion was 98.9%.
Fecal homogenates were analyzed for metabolite profiles. Aliquots of 1 gram of fecal homogenate were mixed with 2 mL methanol, placed on ice for about 10 minutes and centrifuged. The supernatant was transferred to a clean tube. The residue was extracted three times with 2 mL of a water:methanol (3:7) mixture. The supernatants from each sample were combined, evaporated to about 1 mL, and centrifuged. Extraction efficiency was determined by analyzing aliquots of 10 μL of the supernatant for radioactivity. An aliquot (50-200 μL) of the supernatant was analyzed by HPLC with radioactivity flow detection for metabolite profiles. Samples were also analyzed by LC/MS to characterize the radioactive peaks.
A Waters model 2690 HPLC system (Waters Corp., Milford, Mass.) with a built-in autosampler was used for analysis. Separations were accomplished on a Phenomenex Luna C18(2) column (150×2.0 mm, 5 μm) (Phenomenex, Torrance, Calif.). The sample chamber of the autosampler was maintained at 4° C., while the column was at ambient temperature of about 20° C. A variable wavelength UV detector set to monitor 250 nm and a Flo-One β Model A525 radioactivity detector were used for data acquisition. The HPLC mobile phase consisted of 10 mM ammonium acetate, pH 4.5 (A) and acetonitrile (B), and was delivered at 0.2 mL/min. Chromatographic condition A was used for dose analysis, while condition B was used for analysis of urine and plasma, brain and fecal extracts.

Structure (SMILES) | relative abundance of metabolite in human hepatocytes ([1]; 50 μM DCDQ) | metabolite detected in feces [2] | metabolite detected in human hepatocyte incubations ([1]; 10 or 50 μM DCDQ)
O=C(O)[C@H]1O[C@@H](OC(=O)N2CCN3C[C@@H]4CCC[C@@H]4c4cccc(c43)C2)[C@H](O)[C@@H](O)[C@@H]1O [Metabolite M6, carbamoyl glucuronide of DCDQ] | most prominent metabolite | not detected | –
OC1[C@@H]2CCC[C@@H]2c2cccc3c2N1CCNC3 (stereo partly shown) [Metabolite M2, hydroxy DCDQ] | – | detected | –
O=C1CC[C@@H]2c3cccc4c3N(CCNC4)C[C@H]12 [Metabolite M7, 17-keto DCDQ] | – | – | detected
